Laboratory results taken from patent publication US20240398973A1, “ENGINEERED ANTIBODY COMPOUNDS AND CONJUGATES THEREOF” (Eli Lilly and Company, priority 2017, published 2024).

Legend:
[1] = target: formyl peptide receptor 1 (FPR1) on primary human polymorphonuclear neutrophils (human) (UniProt P21462); test: cell-based or functional assay
human primary PMNs = test: PMN reactive oxygen species (ROS) production, luminol-amplified chemiluminescence; format: cell-based; conditions: relative to 1000 nM fMLF
Experimental: Production of ROS by human primary PMNs is measured using luminol-amplified chemiluminescence. Following isolation, PMNs are suspended at 1×10^6 cells/ml in HBSS containing calcium and magnesium (Gibco #14025-092) supplemented with 0.25% human serum albumin (Gemini Bio producst #800-124) and 50 uM Luminol (SigmaAldrich #123072-2.5G). 100 μl of cell suspension (1×10^5 total cells) is then distributed into each well of a 96-well plate suitable for fluorescence measurement (Greiner #655098) and temperature equilibrated to 37° C. for 5 minutes. Following equilibration, 10× solution of antibody conjugate is applied to the wells, achieving a 1× final concentration.
Immediately after the addition of antibody conjugate, chemiluminescence signal is recorded in a luminometer maintained at 37° C. with 0.01 seconds dwell time per well, 20 seconds total time between sequential plate readings and 45 minutes total run time (PerkinElmer EnVision Multilabel Plate Reader).

[2] = system: primary human polymorphonuclear neutrophil (PMN); test: PMN chemotaxis (transwell, modified Boyden chamber); format: cell-based
Experimental: Chemotaxis is measured by observing primary human polymorphonuclear neutrophil (PMN) migration across transwell membranes (Corning #3415) towards antibody conjugates in a modified Boyden chamber assay. Approximately 2-4×10^5 cells from neutrophil-enriched preparations are seeded in upper transwell chambers on membranes with 3.0 um pores. The lower transwell chambers contain solutions of buffer alone and fMLF (N-formyl-Met-Leu-Phe peptide as positive control) and experimental antibody bioconjugates. […] Cell numbers are determined using standard curves. All data are transformed to percent relative to the maximal fMLF response for each individual experiment.

Peptide-'183, formyl-Met-Leu-Phe-Lys(Mal-PEG12)-OH with hydrolyzed maleimido group (unconjugated peptide)
EC50 of PMN ROS production [1]: 103 nM
PMN ROS production at 1 pM (percent relative to 10 uM fMLF) [1]: 6.9%
PMN ROS production at 10 pM (percent relative to 10 uM fMLF) [1]: 7.4%
PMN ROS production at 100 pM (percent relative to 10 uM fMLF) [1]: 7.5%
PMN ROS production at 1 nM (percent relative to 10 uM fMLF) [1]: 8.8%
PMN ROS production at 10 nM (percent relative to 3000 nM fMLF) [1]: 3.6%
PMN ROS production at 10 nM (percent relative to 10 uM fMLF) [1]: 31.3%
PMN ROS production at 30 nM (percent relative to 3000 nM fMLF) [1]: 12.2%
PMN ROS production at 100 nM (percent relative to 3000 nM fMLF) [1]: 49.9%
PMN ROS production at 100 nM (percent relative to 10 uM fMLF) [1]: 76.6%
PMN ROS production at 300 nM (percent relative to 3000 nM fMLF) [1]: 76.2%
PMN ROS production at 1 µM (percent relative to 10 uM fMLF) [1]: 94%
PMN ROS production at 1000 nM (percent relative to 3000 nM fMLF) [1]: 94.3%
PMN ROS production at 3000 nM (percent relative to 3000 nM fMLF) [1]: 99.5%
PMN ROS production at 10 µM (percent relative to 10 uM fMLF) [1]: 107%
PMN ROS production at 10000 nM (percent relative to 3000 nM fMLF) [1]: 89.1%
PMN migration at 1 nM (percent relative to 100 nM fMLF) [1]: 150%
PMN migration at 3 nM (percent relative to 100 nM fMLF) [1]: 167%
PMN migration at 10 nM (percent relative to 100 nM fMLF) [1]: 145%
PMN migration at 30 nM (percent relative to 100 nM fMLF) [1]: 118%
PMN migration at 100 nM (percent relative to 100 nM fMLF) [1]: 84.2%
PMN migration at 300 nM (percent relative to 100 nM fMLF) [1]: 50.4%
PMN migration at 1000 nM (percent relative to 100 nM fMLF) [1]: 33.6%

Tmab-G1-fMIFL-HC124C-378C-(PEG6) (antibody)
EC50 of PMN ROS production [1]: 13.6 nM

Emibetuzumab-G4(PAA)-UC-HC-124C-378C: unconjugated emibetuzumab IgG4(PAA) with HC 124C and 378C; HC SEQ ID NO:3, LC SEQ ID NO:5
PMN ROS production (human primary PMNs; 1 nM, AUC 5 minutes (Table 10)): 25.1 percentage
PMN ROS production (human primary PMNs; 1 nM, AUC 5 minutes (Table 17)): 0.5 percentage
PMN ROS production (human primary PMNs; 2 nM, AUC 5 minutes (Table 10)): 25.5 percentage
PMN ROS production (human primary PMNs; 3 nM, AUC 5 minutes (Table 17)): 0.6 percentage
PMN ROS production (human primary PMNs; 3.9 nM, AUC 5 minutes (Table 10)): 25 percentage
PMN ROS production (human primary PMNs; 7.8 nM, AUC 5 minutes (Table 10)): 25.6 percentage
PMN ROS production (human primary PMNs; 12 nM, AUC 5 minutes (Table 17)): 0.5 percentage
PMN ROS production (human primary PMNs; 15.6 nM, AUC 5 minutes (Table 10)): 24.9 percentage
PMN ROS production (human primary PMNs; 30 nM, AUC 5 minutes (Table 17)): 0.6 percentage
PMN ROS production (human primary PMNs; 31.3 nM, AUC 5 minutes (Table 10)): 25.3 percentage
PMN ROS production (human primary PMNs; 62.5 nM, AUC 5 minutes (Table 10)): 24.5 percentage
PMN ROS production (human primary PMNs; 100 nM, AUC 5 minutes (Table 17)): 0.5 percentage
PMN ROS production (human primary PMNs; 125 nM, AUC 5 minutes (Table 10)): 24.6 percentage
PMN ROS production (human primary PMNs; 250 nM, AUC 5 minutes (Table 10)): 24.9 percentage
PMN ROS production (human primary PMNs; 300 nM, AUC 5 minutes (Table 17)): 0.7 percentage
PMN ROS production (human primary PMNs; 500 nM, AUC 5 minutes (Table 10)): 23 percentage
PMN ROS production (human primary PMNs; 1000 nM, AUC 5 minutes (Table 10)): 32.2 percentage
PMN ROS production (human primary PMNs; 1000 nM, AUC 5 minutes (Table 17)): 0.5 percentage
Relative Migration (PMN migration towards antibody conjugates) ([2]; 0.78 nM, relative to 3.12 nM fMLF (Table 6)): 5.48%
Relative Migration (PMN migration towards antibody conjugates) ([2]; 1 nM, relative to 30 nM fMLF (Table 7)): 11.30%
Relative Migration (PMN migration towards antibody conjugates) ([2]; 1.56 nM, relative to 3.12 nM fMLF (Table 6)): 8.05%
Relative Migration (PMN migration towards antibody conjugates) ([2]; 3 nM, relative to 30 nM fMLF (Table 7)): 12.40%
Relative Migration (PMN migration towards antibody conjugates) ([2]; 3.12 nM, relative to 3.12 nM fMLF (Table 6)): 7.24%
Relative Migration (PMN migration towards antibody conjugates) ([2]; 6.25 nM, relative to 3.12 nM fMLF (Table 6)): 6.36%
Relative Migration (PMN migration towards antibody conjugates) ([2]; 10 nM, relative to 30 nM fMLF (Table 7)): 12.27%
Relative Migration (PMN migration towards antibody conjugates) ([2]; 12.5 nM, relative to 3.12 nM fMLF (Table 6)): 4.11%
Relative Migration (PMN migration towards antibody conjugates) ([2]; 25 nM, relative to 3.12 nM fMLF (Table 6)): 5.70%
Relative Migration (PMN migration towards antibody conjugates) ([2]; 30 nM, relative to 30 nM fMLF (Table 7)): 14.66%
Relative Migration (PMN migration towards antibody conjugates) ([2]; 50 nM, relative to 3.12 nM fMLF (Table 6)): 12.02%
Relative Migration (PMN migration towards antibody conjugates) ([2]; 100 nM, relative to 3.12 nM fMLF (Table 6)): 6.67%
Relative Migration (PMN migration towards antibody conjugates) ([2]; 100 nM, relative to 30 nM fMLF (Table 7)): 14.89%
Relative Migration (PMN migration towards antibody conjugates) ([2]; 300 nM, relative to 30 nM fMLF (Table 7)): 17.95%
PMN migration (in words) ([2]; relative to conjugated antibodies): did not induce PMN migration

Tmab-G1-fMIFL-HC124C-378C-(PEG12) (antibody)
EC50 of PMN ROS production [1]: 36.4 nM

Tmab-G1-fMIFL-HC124C-378C-(PEG3) (antibody)
EC50 of PMN ROS production [1]: 31.3 nM
